Literature values, collected in patent US20050042271A1, “Transdermal delivery system for alkaloids of aconitum species” (priority 1999, published 2005).

Tests used:
[1] = all layers of epidermis and dermis; irreversible damage, scarring

Row | Compound | affinity for opioid receptors (opioid receptors) | skin irritation [1]
1 | CCN1C[C@@]2(COC)[C@H]3[C@@H](OC)[C@H]4[C@@H]1[C@]3([C@@H](OC)C[C@H]2OC(C)=O)[C@@H]1C[C@@]2(O)[C@H](OC(=O)c3ccccc3)[C@@H]1[C@]4(OC(C)=O)[C@@H](O)[C@@H]2OC [3-acetylaconitine] | without affinity for opioid receptors | –
2 | CCCCCCCCCCCCN1CCCCCC1=O [Azone, laurocapram] | – | severe skin irritation
3 | CCN1C[C@]2(OC(=O)c3ccccc3NC(C)=O)CC[C@H](OC)[C@@]34[C@@H]2C[C@@H]([C@@H]13)[C@@]1(O)C[C@H](OC)[C@H]2C[C@@H]4[C@]1(O)[C@H]2OC [lappaconitine] | without affinity for opioid receptors | –
4 | bulleyaconitine A | without affinity for opioid receptors | –
